In assay [1] the target is Neuronal acetylcholine receptor; alpha4/beta2 (Rattus norvegicus, UniProt P09483+P12390). Put plainly: Displacement of [3H]epibatidine from rat alpha4beta2 nAChR. The assay is classed as protein-complex assay. For orientation: In a radioligand displacement assay an active substance lowers the binding of a labelled ligand.
The target in assay [2] is T1, Neuronal acetylcholine receptor subunit alpha-7 (Rattus norvegicus, UniProt Q05941). Put plainly: Displacement of [125I]alpha-bungarotoxin from rat alpha7 nAChR.
T1 sequence (Q05941 whole entry): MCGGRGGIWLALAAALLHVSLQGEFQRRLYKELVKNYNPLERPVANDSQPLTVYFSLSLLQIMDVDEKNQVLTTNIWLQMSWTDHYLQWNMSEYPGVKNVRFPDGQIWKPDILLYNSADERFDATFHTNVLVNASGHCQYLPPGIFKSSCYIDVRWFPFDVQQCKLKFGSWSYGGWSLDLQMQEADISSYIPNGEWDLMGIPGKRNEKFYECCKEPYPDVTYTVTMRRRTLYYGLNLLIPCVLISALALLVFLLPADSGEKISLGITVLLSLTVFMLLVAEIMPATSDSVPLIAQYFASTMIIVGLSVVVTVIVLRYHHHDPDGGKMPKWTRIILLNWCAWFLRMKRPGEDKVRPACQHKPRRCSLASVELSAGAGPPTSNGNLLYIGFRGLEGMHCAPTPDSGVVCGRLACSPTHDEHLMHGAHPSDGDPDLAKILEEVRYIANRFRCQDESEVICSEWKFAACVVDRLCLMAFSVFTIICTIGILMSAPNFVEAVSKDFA
For assay [3], the target named is T1, Neuronal acetylcholine receptor subunit alpha-7. The experiment in a line: Displacement of [3H]MLA from rat alpha7 nAChR.

SMILES strings stand for the structures.

Chain of Neuronal acetylcholine receptor; alpha4/beta2 (P09483 whole entry): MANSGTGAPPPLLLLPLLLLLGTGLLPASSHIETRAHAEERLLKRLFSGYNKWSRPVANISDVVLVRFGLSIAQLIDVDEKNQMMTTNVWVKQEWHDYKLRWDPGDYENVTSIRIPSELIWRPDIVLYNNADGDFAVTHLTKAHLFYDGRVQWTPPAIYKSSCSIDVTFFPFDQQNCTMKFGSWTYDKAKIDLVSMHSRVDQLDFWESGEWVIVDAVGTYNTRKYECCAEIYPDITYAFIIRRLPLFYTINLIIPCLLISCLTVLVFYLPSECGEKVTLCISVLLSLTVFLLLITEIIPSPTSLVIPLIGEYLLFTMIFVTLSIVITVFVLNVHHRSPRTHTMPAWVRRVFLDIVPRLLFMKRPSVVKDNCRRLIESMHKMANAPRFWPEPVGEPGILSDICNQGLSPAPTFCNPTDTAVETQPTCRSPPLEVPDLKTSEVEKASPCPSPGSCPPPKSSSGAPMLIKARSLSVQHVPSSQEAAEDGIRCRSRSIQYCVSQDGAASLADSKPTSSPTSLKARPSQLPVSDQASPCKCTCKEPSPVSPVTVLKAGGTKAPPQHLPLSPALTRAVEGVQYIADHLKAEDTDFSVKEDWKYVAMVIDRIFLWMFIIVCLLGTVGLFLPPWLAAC
Chain of Neuronal acetylcholine receptor; alpha4/beta2 (P12390 whole entry): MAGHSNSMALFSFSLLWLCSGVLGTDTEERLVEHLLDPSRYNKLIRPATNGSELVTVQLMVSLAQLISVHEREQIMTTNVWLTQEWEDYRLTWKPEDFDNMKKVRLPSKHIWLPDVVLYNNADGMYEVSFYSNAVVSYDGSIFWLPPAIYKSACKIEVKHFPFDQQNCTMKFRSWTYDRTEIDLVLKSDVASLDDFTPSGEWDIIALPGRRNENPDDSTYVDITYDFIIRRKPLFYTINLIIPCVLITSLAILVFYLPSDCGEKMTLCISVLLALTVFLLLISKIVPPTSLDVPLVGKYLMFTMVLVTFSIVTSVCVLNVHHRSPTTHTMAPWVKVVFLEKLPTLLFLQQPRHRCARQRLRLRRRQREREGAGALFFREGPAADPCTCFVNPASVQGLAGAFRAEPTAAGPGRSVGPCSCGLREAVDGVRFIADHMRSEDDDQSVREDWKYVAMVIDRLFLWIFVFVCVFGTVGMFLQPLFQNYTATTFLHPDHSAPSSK

For `c1cc(N2CCOCC2)ncc1C1CN2CCC1CC2` (stereo not drawn), the Ki (commonly the dissociation constant of the complex between target and ligand, obtained from inhibition or displacement) in assay [1] was 21 µM; in assay [2] it was 0.35 µM.
Taken in the same sequence, the figures for `C1=C(c2ccc(N3CCOCC3)nc2)C2CCC1N2` (stereo not drawn) were 12 µM and 33 µM.
Taken in the same sequence, the figures for `C1=C(c2ccc(N3CCOCC3)nc2)C2CCN1CC2` were 3.1 µM and 0.4 µM.
The corresponding values for `C[N+]12CCC(CC1)C(c1ccc(N3CCOCC3)nc1)C2` (stereo not drawn) are 25 µM and 6.1 µM.
Consider `C[N+]12C=C(c3ccc(N4CCOCC4)nc3)C(CC1)CC2`, for which the Ki is 22 µM in assay [1] and 5.6 µM in assay [2].
As to `C1=C(c2cccnc2)C2CCN1CC2`, the Ki in assay [3] amounted to 0.085 µM; in assay [1], 0.11 µM; in assay [2] it was 0.14 µM.

The values are drawn from ChEMBL document CHEMBL1156085, “Design of novel alpha7-subtype-preferring nicotinic acetylcholine receptor agonists: application of docking and MM-PBSA computational approaches, synthetic and pharmacological studies” (Bioorg Med Chem Lett, 2009).
